This is an account of results in ChEMBL document CHEMBL3045842, “Antioxidant and -glucosidase inhibitory compounds from Pimpinella candolleana Wight et Arn” (Med Chem Res, 2012).

Assay [1] is described as follows: Antioxidant activity assessed as trolox equivalents of ferric reducing activity after 30 min by spectrophotometry. Type of assay: functional.
Assay [2] in a line: Antioxidant activity assessed as ABTS radical scavenging activity after 10 min by spectrophotometry. In kind it is functional.
Assay [3] concerns Radical scavenging activity. Nature of the assay: Antioxidant activity assessed as as DPPH radical scavenging activity after 30 min by spectrophotometry. In kind it is functional. Background: The DPPH test is a chemical assay of radical scavenging.
For assay [4], the target named is Lysosomal alpha-glucosidase (Homo sapiens) (UniProt P10253). Nature of the assay: Inhibition of alpha-glucosidase (unknown origin) using para-nitrophenyl-alpha-D-glucopyranoside as substrate incubated at 50 to 300 ug/ml for 15 min prior to substrate addition measured after 15 min by spectrophotometric analysis.

Broadly, the IC50 is the concentration at which inhibition is half-maximal. As usually defined, the inhibition is the relative decrease from the control value, in per cent. A high value points to a response far below the control.

Converted amounts (≈) assume the structure as drawn.

With `Cc1cc(C(C)(C)C)c(O)c(C(C)(C)C)c1` [BUTYLATED HYDROXYTOLUENE], the Activity in assay [1] came to 1580 µmol/g. Further, the IC50 in assay [2] worked out at 6.64 µg/mL (≈ 30.1 µM); in assay [3], 18.71 µg/mL (≈ 84.9 µM).

With `CC[C@H](/C=C/[C@@H](C)[C@H]1CC[C@H]2[C@@H]3CC=C4CC(OC(C)=O)CC[C@]4(C)[C@H]3CC[C@]12C)C(C)C` (stereo not given in full), the inhibition in assay [4] was 99.1%. The same measure, in the same setting: under `O=c1cc(-c2ccc(O)cc2)oc2cc(O)c([C@@H]3O[C@H](CO)[C@@H](O)[C@H](O)[C@H]3O)c(O)c12` stands 76.8%. Turning to `CCCOC(=O)c1cc(O)c(O)c(O)c1` [PROPYL GALLATE], the IC50 in assay [3] amounted to 3.96 µg/mL (≈ 18.7 µM). In the case of `O=c1cc(-c2ccc(O)c(O)c2)oc2cc(O)cc(O)c12` [LUTEOLIN], in assay [4], the inhibition is 99.9%. The IC50 in assay [3] was 0.99 µg/mL (≈ 3.46 µM).

Take `C[C@H]1O[C@H](O[C@H]2[C@H](O)[C@@H](O)[C@@H](O[C@H]3[C@H](O)[C@@H](O)C(O)O[C@@H]3CO)O[C@@H]2CO)[C@H](O)[C@@H](O)[C@@H]1N[C@H]1C=C(CO)[C@@H](O)[C@H](O)[C@H]1O` (stereo not given in full): the inhibition in assay [4] was 55.6%.

Turning to `C[C@H]1[C@H](C)CC[C@]2(C(=O)O)CC[C@]3(C)C(=CC[C@@H]4[C@@]5(C)CC[C@H](O)C(C)(C)[C@@H]5CC[C@]43C)[C@H]12`, the inhibition in assay [4] came to 97.6%.
